Test results from the supplement of paper PMC13380429.

Experiments:
[1] = tested on: A549-ACE2 infected with SARS-CoV-2; assay: cell count relative to DMSO; higher = less toxic; conditions: 24 h
[2] = tested on: A549-ACE2; assay: drug-induced phospholipidosis relative to tamoxifen; higher = more phospholipidosis
[3] = tested on: A549-ACE2 infected with SARS-CoV-2; assay: SARS-CoV-2 infection rate relative to DMSO; higher = more infection; conditions: 24 h
[4] = tested on: Vero E6; assay: drug sensitivity score (DSS) for viability; higher = more toxic; extreme values may be limits of the assay; conditions: 72 h
[5] = tested on: U2OS; assay: as above; conditions: 72 h
[6] = tested on: Calu-3; assay: as above; conditions: 72 h
[7] = tested on: Caco-2; assay: as above; conditions: 72 h
[8] = tested on: HepG2; assay: as above; conditions: 72 h
[9] = tested on: Vero E6; assay: cell viability relative to DMSO; higher = less toxic; conditions: 72 h
[10] = tested on: U2OS; assay: as above; conditions: 72 h
[11] = tested on: Calu-3; assay: as above; conditions: 72 h
[12] = tested on: Caco-2; assay: as above; conditions: 72 h
[13] = tested on: HepG2; assay: as above; conditions: 72 h
[14] = tested on: Vero E6; assay: relative viability EC50 (midpoint between 100% and the lowest measured viability); higher = less toxic; conditions: 72 h
[15] = tested on: U2OS; assay: as above; conditions: 72 h
[16] = tested on: A549-ACE2; assay: phospholipidosis EC50; higher = less potent phospholipidosis inducer
[17] = tested on: A549-ACE2 infected with SARS-CoV-2; assay: morphology score (similarity to uninfected cells); higher = more like uninfected cells; conditions: 24 h
[18] = tested on: Caco-2; assay: relative viability EC50 (midpoint between 100% and the lowest measured viability); higher = less toxic; conditions: 72 h
[19] = tested on: HepG2; assay: as above; conditions: 72 h
[20] = tested on: Calu-3; assay: as above; conditions: 72 h

CC(C)(C)c1ccc(C(=O)CCCN2CCC(OC(c3ccccc3)c3ccccc3)CC2)cc1 [ebastine]
Conditions | SARS-CoV-2 infection rate [%] | cell count [%] | cell viability [%] | morphology score | phospholipidosis EC50 [µM]
[1], 0.3 µM | – | 99 | – | – | –
[1], 3 µM | – | 117 | – | – | –
[1], 10 µM | – | 111 | – | – | –
[1], 30 µM | – | 58 | – | – | –
[3], 0.3 µM | 105 | – | – | – | –
[3], 3 µM | 44 | – | – | – | –
[3], 10 µM | 26 | – | – | – | –
[3], 30 µM | 26 | – | – | – | –
[9], 1 nM | – | – | 88.3 | – | –
[9], 10 nM | – | – | 98.7 | – | –
[9], 100 nM | – | – | 92.1 | – | –
[9], 1000 nM | – | – | 92 | – | –
[9], 10000 nM | – | – | 86.8 | – | –
[10], 1 nM | – | – | 99 | – | –
[10], 10 nM | – | – | 94.6 | – | –
[10], 100 nM | – | – | 102 | – | –
[10], 1000 nM | – | – | 93.6 | – | –
[10], 10000 nM | – | – | 87.9 | – | –
[11], 1 nM | – | – | 96.4 | – | –
[11], 10 nM | – | – | 95.7 | – | –
[11], 100 nM | – | – | 106 | – | –
[11], 1000 nM | – | – | 101 | – | –
[11], 10000 nM | – | – | 60.2 | – | –
[12], 1 nM | – | – | 97.6 | – | –
[12], 10 nM | – | – | 102 | – | –
[12], 100 nM | – | – | 104 | – | –
[12], 1000 nM | – | – | 98.8 | – | –
[12], 10000 nM | – | – | 68.2 | – | –
[13], 1 nM | – | – | 89.3 | – | –
[13], 10 nM | – | – | 110 | – | –
[13], 100 nM | – | – | 101 | – | –
[13], 1000 nM | – | – | 108 | – | –
[13], 10000 nM | – | – | 60.5 | – | –
[16], 24 h | – | – | – | – | 3.13
[16], 48 h | – | – | – | – | 22.1
[16], 72 h | – | – | – | – | 17.3
[17], 0.3 µM | – | – | – | -0.12 | –
[17], 3 µM | – | – | – | 0.71 | –
[17], 10 µM | – | – | – | 0.8 | –
[17], 30 µM | – | – | – | 0.25 | –

drug-induced phospholipidosis [%], [2]
Conditions | 0.3 µM | 0.833333 µM | 3.33333 µM | 6.66667 µM | 10 µM | 30 µM
24 h | 8.24 | 11.3 | 46.9 | 67.3 | 73.2 | 55.4
48 h | 5.48 | 4.12 | 27.6 | 52.1 | 76.4 | –
72 h | 5.22 | 0.608 | 24.1 | 42.2 | 62.6 | –

Conditions | drug sensitivity score | relative viability EC50 [µM]
[4] | 0 | –
[5] | 0.3 | –
[6] | 1.9 | –
[7] | 1.6 | –
[8] | 1.5 | –
[14] | – | > 10
[15] | – | > 10

CC(=O)[O-].CC(=O)[O-].N.NC1CCCCC1.[Cl-].[Cl-].[Pt+4] [satraplatin]
Conditions | SARS-CoV-2 infection rate, [3] [%] | cell count, [1] [%] | cell viability, [9] [%] | cell viability, [10] [%] | cell viability, [11] [%] | cell viability, [12] [%] | cell viability, [13] [%] | morphology score, [17]
1 nM | – | – | 106 | 104 | 113 | 95.7 | 105 | –
10 nM | – | – | 103 | 109 | 119 | 99.7 | 96.5 | –
0.1 µM | 107 | 107 | – | – | – | – | – | 0.11
100 nM | – | – | 93.4 | 103 | 96.6 | 93.5 | 102 | –
0.3 µM | 108 | 94 | – | – | – | – | – | -0.19
1 µM | 90 | 98 | – | – | – | – | – | 0.26
1000 nM | – | – | 91.7 | 105 | 94.8 | 93.3 | 73.8 | –
3 µM | 97 | 93 | – | – | – | – | – | 0.04
10000 nM | – | – | 68.1 | 8.5 | 69 | 42 | 36.1 | –

drug-induced phospholipidosis [%], [2]
Conditions | 0.3 µM | 0.833333 µM | 3.33333 µM | 6.66667 µM | 10 µM
24 h | 3.84 | 0.69 | 3.32 | 0.26 | 5.28
48 h | 3.35 | -1.19 | -0.57 | -1.29 | -2.3
72 h | 2.49 | -2.74 | 0.684 | – | –

Conditions | drug sensitivity score | relative viability EC50 [µM]
[4] | 2.4 | –
[5] | 4.7 | –
[6] | 2.2 | –
[7] | 4.3 | –
[8] | 7 | –
[15] | – | 3.44
[18] | – | 2.21
[19] | – | 1.16

COc1cc2ncnc(Nc3cccc(Cl)c3)c2cc1OC [tyrphostin-AG-1478]
Conditions | SARS-CoV-2 infection rate, [3] [%] | cell count, [1] [%] | cell viability, [9] [%] | cell viability, [10] [%] | cell viability, [11] [%] | cell viability, [12] [%] | cell viability, [13] [%] | morphology score, [17]
1 nM | – | – | 98.6 | 103 | 107 | 102 | 99.7 | –
10 nM | – | – | 100 | 96.1 | 103 | 88.6 | 85.3 | –
100 nM | – | – | 84.9 | 96.2 | 93.6 | 97.4 | 101 | –
0.3 µM | 101 | 97 | – | – | – | – | – | -0.07
1000 nM | – | – | 64.3 | 92.7 | 45.1 | 80.5 | 100 | –
3 µM | 91 | 102 | – | – | – | – | – | 0.32
10 µM | 57 | 106 | – | – | – | – | – | 0.52
10000 nM | – | – | 48.2 | 87.7 | 31.3 | 72.4 | 67.3 | –
30 µM | 19 | 69 | – | – | – | – | – | 0.35

drug-induced phospholipidosis [%], [2]
Conditions | 0.3 µM | 0.833333 µM | 3.33333 µM | 6.66667 µM | 10 µM | 30 µM
24 h | 3.78 | 0.06 | -0.97 | 3.23 | 3.9 | 3.18
48 h | 3.39 | -0.45 | -0.89 | -0.86 | 1.84 | -2.59
72 h | 0.893 | -2.52 | -3.56 | -0.746 | 0.696 | -0.954

Conditions | drug sensitivity score | relative viability EC50 [µM]
[4] | 8.2 | –
[5] | 0.1 | –
[6] | 11.1 | –
[7] | 3.1 | –
[8] | 1.5 | –
[14] | – | 0.335
[15] | – | > 10
[20] | – | 0.422
